How the values were obtained:
[1] = test system: HHD-DR1 mice; experiment: IFN-γ intracellular cytokine staining (flow cytometry) of CD4+ and CD8+ T cells after peptide immunization; type: in vivo, mouse; conditions: splenocytes of immunized mice stimulated with peptide 10 μM, 4 hours, GolgiStop/GolgiPlug; cell density plots
Experimental: (§1) Eight-week-old female HHD-DR1 mice, transgenic for human HLA-A*02:01 molecules ([82]), were used. After study approval by the ethics review committee (reference no. 036-21), mice were bred and housed under pathogen-free conditions in the animal facility of the Center for Applied Medical Research (CIMA). Mice (n = 4 per group) were immunized with peptides (100 nmol per peptide), polyinosinic:polycytidylic acid (50 μg per mouse), and αCD40 (50 μg per mouse). The peptides and adjuvants were administered simultaneously via subcutaneous injection of 100 μl of the mixture resuspended in phosphate-buffered saline. Mice received a boost on day 7 and were euthanized on day 14.
Splenocytes were stimulated with the peptides (10 μM) in the presence of GolgiStop and GolgiPlug (BD Biosciences). Four hours later, cells were surface stained with the following antibodies: CD3ε-Percp-Cy5 (145-2 C11), CD4-FITC (RM4-5), and CD8-BV421 (53-6.7) from BioLegend. Next, cells were fixed and permeabilized using BD Cytofix/Cytoperm Fixation/Permeablization Kit and intracellularly stained with IFNγ-PE (XMG1.2) antibodies. Samples were acquired with a Cytoflex (Beckman Coulter) flow cytometer and were analyzed using FlowJo software (Tree Star).

[2] = test system: HHD-DR1 mice; experiment: IFN-γ ELISPOT on splenocytes of peptide-immunized HLA-A*02:01 transgenic mice; type: in vivo, mouse; conditions: for IFN-γ signal after peptide immunization (immunogenicity), in words: HLA-A*02:01 / HLA-DRB1*01 transgenic mice immunized twice, T cell response measured at day 14 by IFN-γ ELISPOT
Experimental: as §1
The spleens of immunized mice were processed to measure the number of IFN-γ secreting cells. Splenocytes (8 × 10^5 cells per well) were stimulated for 24 hours with peptides (10 μg/ml). The number of IFN-γ secreting cells was quantified by ImmunoSpot automated counter (Cellular Technology Limited) using the Spot 3 CTL CellCounting software.

Row | Sequence | IFN-γ producing CD8+ versus CD4+ T cells (ICS), in words [1] | IFN-γ signal after peptide immunization (immunogenicity), in words [2] | number of IFN-γ secreting cells (IFNγSFC) ([2]; HHD-DR1 mice, n = 4 per group, 100 nmol peptide + poly I:C + αCD40 s.c., boost day 7, spleens day 14, splenocytes stimulated 24 hours with peptide 10 μg/ml, all four replicates)
1 | GLFHIYHKI | signal for CD8+ cells only | strong IFN-γ signal | 
2 | WMSLDWELYV | signal for CD8+ cells only | strong IFN-γ signal | > 1000 IFNγSFC per 8 × 10^5 cells

From publication PMC11235171, “Microproteins encoded by noncanonical ORFs are a major source of tumor-specific antigens in a liver cancer patient meta-cohort” (Science Advances, 2024)
